According to US7208509B2, “Non-nucleoside reverse transcriptase inhibitors” (Roche Palo Alto LLC, priority 2003, dated 2007):

Target: HIV-1 RT (Human immunodeficiency virus type 1 group M subtype B, UniProt P03366)
Test: HIV Reverse Transcriptase Assay: Inhibitor IC50 Determination
Type: biochemical
Details: purified recombinant enzyme, poly(rA)/oligo(dT)16 template-primer, [3H] dTTP, 37° C. for 30 min; read-out: RT inhibition IC50
Method: HIV Reverse Transcriptase Assay: Inhibitor IC50 Determination
HIV-1 RT assay was carried out in 96-well Millipore MultiScreen MADVNOB50 plates using purified recombinant enzyme and a poly(rA)/oligo(dT)16 template-primer in a total volume of 50 μL. The assay constituents were 50 mM Tris/HCl, 50 mM NaCl, 1 mM EDTA, 6 mM MgCl2, 5 μM dTTP, 0.15 μCi [^3H] dTTP, 5 μg/ml poly (rA) pre annealed to 2.5 μg/ml oligo (dT)16 and a range of inhibitor concentrations in a final concentration of 10% DMSO. Reactions were initiated by adding 4 nM HIV-1 RT and after incubation at 37° C. for 30 min, they were stopped by the addition of 50 μl ice cold 20% TCA and allowed to precipitate at 4° C. for 30 min. The precipitates were collected by applying vacuum to the plate and sequentially washing with 3×200 μl of 10% TCA and 2×200 μl 70% ethanol. Finally, the plates were dried and radioactivity counted in a Packard TopCounter after the addition of 25 μl scintillation fluid per well. IC50's were calculated by plotting % inhibition versus log10 inhibitor concentrations.

SMILES	IC50
CCn1c(Cc2ccc(Cl)c(Oc3cccc(Cl)c3)c2)n[nH]c1=O [Compound 9, 5-[4-Chloro-3-(3-chloro-phenoxy)-benzyl]-4-ethyl-2,4-dihydro-[1,2,4]triazol-3-one]	444 nM
Cn1c(Cc2ccc(Cl)c(Oc3cccc(Cl)c3)c2)n[nH]c1=O [Compound 8, 5-[4-Chloro-3-(3-chloro-phenoxy)-benzyl]-4-methyl-2,4-dihydro-[1,2,4]triazol-3-one]	286 nM
CCn1c(Cc2ccc(Cl)c(Oc3ccccc3Cl)c2)n[nH]c1=O [Compound 7, 5-[4-Chloro-3-(2-chloro-phenoxy)-benzyl]-4-ethyl-2,4-dihydro-[1,2,4]triazol-3-one]	447 nM
O=c1[nH]nc(Cc2ccc(Cl)c(Oc3ccccc3Cl)c2)s1 [Compound 4, 5-[4-Chloro-3-(2-chloro-phenoxy)-benzyl]-3H-[1,3,4]thiadiazol-2-one]	195 nM
